Results published in patent US5512269A, “Method of treating retained pulmonary secretions” (priority 1993, dated 1996).

How the values were obtained:
[1] = system: Mycobacterium tuberculosis 65021; type: cell-based; conditions: for susceptibility of strain 65021 to drug: streptomycin 6 μg/ml, isoniazid 0.2 μg/ml, rifampin 2 μg/ml, ethambutol 7.5 μg/ml
normal airway epithelium = experiment: Ussing chamber short circuit current (Isc) Cl- secretory response, normal airway epithelium primary cultures; type: cell-based, human
CF airway epithelium = conditions: 10^-6 M
Excerpt: 1. Ussing Chamber Studies: The Cl^- secretory response to stimulation of normal and CF airway epithelium was studied under short circuit (Isc) conditions employing tissues mounted in Ussing chambers. Ussing chambers are well known in the art and the manner of their use in the present example would be readily apparent to one skilled in the art.

[2] = system: Mycobacterium tuberculosis 63169; type: cell-based; conditions: for susceptibility of strain 63169 to drug: streptomycin 6 μg/ml, isoniazid 0.2 μg/ml, rifampin 2 μg/ml, ethambutol 7.5 μg/ml
[3] = system: canine trachea airway surface liquid; conditions: dog
Experimental: 1. The Animal Model: The model developed employed 30 kg male dogs that were anesthetized with intravenous pentobarbital and maintained on a intravenous infusion of normal saline at 75 cc/hour. The dogs were intubated. Ventilatory support was provided by a Harvard™ piston pump. Adequate ventilation and oxygenation were documented by arterial blood gas studies. Peak airway pressures (PAP) were measured and continuous monitoring of hemoglobin saturation was accomplished by pulse oximetry.
Drug and vehicle were delivered through the endotracheal tube. The drug was nebulized employing a Pulmo-Aid™ Compressor and a DeVilbiss™ nebulizer. The drug (50 μM; 3 ml) in a saline vehicle or the saline vehicle alone (control) was nebulized for 6 minutes during which 0.7 ml thereof was delivered to the animal. […] After 6 minutes, a clean and dry nebulizer was exchanged for the test nebulizer containing the drug or vehicle. The investigators were blinded as to whether drug or vehicle was given.
2. Measurements of airway fluid: Airway liquid measurements were made by applying dry preweighed filter paper to the cartilaginous portions of the airway for 20 seconds. This was accomplished employing transbronchial biopsy forceps to grasp the papers. The forceps and papers were stored in plastic catheters. Sampling the airway liquid was accomplished by first inserting the bronchoscope through the endotracheal tube. Care was taken not to allow contact between mucosa and the bronchoscope. The catheter containing the biopsy forceps and filter papers was introduced into the airway lumen through the channel in the bronchoscope. The biopsy forceps were then pushed out of the catheter and the filter papers gently applied to the mucosa. After 20 seconds the biopsy forceps and filter papers were pulled back into the catheter and removed through the bronchoscope for weighing. The filter papers were accessed for weighing by again pushing the forceps holding the filter paper out of the catheter. In order to account for evaporative losses from the filter papers when exposed to room air, the time required to place the papers on the scales and perform the initial weighing was recorded. Three subsequent weighings over time were then made. A regression line was calculated. The weight of the filter papers at time zero, that is when they were maximally wet, was defined as the time when the filter papers were pushed out of the catheter after having been applied to the airway mucosa. The amount of fluid on the filter paper was taken as the difference between the dry weight of the papers and their weight at time zero. Each set of samples to be compared were further corrected for differences in the initial weight of the dry filter papers.
The goal of the first protocol was to study the effects on airway surfaces liquid of (1) repeatedly sampling the airway, and (2) nebulizing the normal saline vehicle.
Protocol 1 required, immediately prior to conducting the test studies, weighing and loading the filter papers into catheters. Ten separate catheter-forceps-filter paper set-ups were available. Ten measurements of airway liquid were then made in different areas of the trachea over a thirty-minute period, with measurements made at three minute intervals. The catheters were then reloaded and the saline vehicle nebulized onto the airway. Ten more measurements of airway surface liquid were then made over another thirty minute period.
Protocol 2 required sampling the airway every four minutes to obtain 30 measurements of airway liquid. This required reloading the 10 catheters twice during each experiment. Each reloading required 20 minutes. This protocol allowed the airway to be sampled over 160 minutes. Drug and vehicle administration were separated by one week in any one animal.

[4] = system: CFT43 cell line (intracellular cAMP); conditions: CFT43 cells, duramycin stimulation
Excerpt: (§1) 4. Mechanisms of Action: Preliminary studies were also done investigating possible mechanisms of action.

[5] = system: CFT43 cell line (phospholipase C, inositol phosphates); conditions: CFT43 cells, duramycin stimulation
Excerpt: as §1

[6] = system: Mycobacterium tuberculosis 57778; type: cell-based; conditions: for susceptibility of strain 57778 to drug: streptomycin 6 μg/ml, isoniazid 0.2 μg/ml, rifampin 2 μg/ml, ethambutol 7.5 μg/ml
[7] = system: Mycobacterium tuberculosis drug sensitive laboratory strain; type: cell-based; conditions: for susceptibility of drug-sensitive laboratory strain to drug: streptomycin 6 μg/ml, isoniazid 0.2 μg/ml, rifampin 2 μg/ml, ethambutol 7.5 μg/ml
[8] = system: sheep airway surface liquid; conditions: sheep model, W. Mentz et al.; cited from earlier work

What does the source list for duramycin?
activity on growth (growth index over 12 days), strain 65021 ([1]; 100 μM duramycin): significantly more activity against this strain than any of the four traditional anti-tuberculosis drugs tested; peak Isc (Cl- current) after duramycin (normal airway epithelium; 10^-6 M duramycin, normal tissues after amiloride and forskolin (10 μM), baseline 20 μA/cm^2 after amiloride): 50 μA/cm^2; Cl- secretory response in normal tissue (normal airway epithelium; 10^-6 M, seven normal tissues): significant Cl^- secretory response; Isc response to duramycin, control bathing solution (normal airway epithelium; 10^-6 M, solution containing both Na+ and Cl-): responded by increasing the Isc; Isc response to duramycin, Cl- free bathing solution (normal airway epithelium; 10^-6 M, solution without Cl-): markedly attenuated response; Isc response to duramycin, Na+ free bathing solution (normal airway epithelium; 10^-6 M, solution without Na+): responded by increasing the Isc; concentration giving maximal response (normal airway epithelium; dose response study): 10^-6 M; ED50 (normal airway epithelium; dose response study, Isc response): 300 nM; duration of increase in Isc (Cl- secretory response) (normal airway epithelium; in some instances): > 1 h; Cl- secretory response (change in Isc) in CF tissue relative to normal tissue (CF airway epithelium): approximately twice; Cl- secretory response in CF tissue (CF airway epithelium; five CF tissues): significant Cl^- secretory response; activity on growth (growth index over 12 days), strain 63169 ([2]; 100 μM duramycin): approximately equal to that of the two drugs now known to be effective against this strain; increase in amount of fluid recovered over baseline, Protocol 2 ([3]; 160 minutes, vehicle first then duramycin one week later): several-fold increase; return of airway surface liquid to baseline ([3]; Protocol 1): did not return to baseline even two hours following its administration; surface airway liquid after vehicle one week following duramycin ([3]; Protocol 2, duramycin given first): remained elevated; amount of fluid recovered from the airway, Protocol 1 ([3]; nebulized duramycin, 30 minute measurement period): marked and sustained increase; increase in airway surface liquid recovered compared to vehicle controls ([3]; vehicle first, p=0.0179 (paired), p=0.0335 (unpaired), n=6): significant; average change in amount of fluid recovered ([3]; versus vehicle): doubling; intracellular cAMP levels [4]: did not cause intracellular cAMP levels to rise; inositol phosphates (IPs) produced [5]: no detectable amounts of IPs; activity on growth (growth index over 12 days), strain 57778 ([6]; 100 μM duramycin): equally as effective as ethambutol; activity on growth (growth index over 12 days), drug-sensitive laboratory strain ([7]; 100 μM duramycin): less active in vitro than streptomycin, isoniazid, rifampin, or ethambutol

What does the source list for `NNC(=O)c1ccncc1` [isoniazid]?
susceptibility of strain 65021 to drug [1]: resistant; susceptibility of strain 63169 to drug [2]: resistant; susceptibility of strain 57778 to drug [6]: resistant; susceptibility of drug-sensitive laboratory strain to drug [7]: sensitive

With `CC[C@@H](CO)NCCN[C@@H](CC)CO` [ethambutol] as the molecule, how does the “susceptibility of strain 65021 to drug” value [1] read?
The value was “partially resistant”.

What about the “susceptibility of strain 63169 to drug” value [2] of the same molecule?
The value was “sensitive”.

And the “susceptibility of strain 57778 to drug” value [6]?
The value was “sensitive”.

What about the “susceptibility of drug-sensitive laboratory strain to drug” value [7] of the same molecule?
Its value is “sensitive”.

Which “susceptibility of strain 65021 to drug” value [1] does the source give for `[H]/N=C(/N)N[C@H]1[C@H](O)[C@@H](O)[C@H](O[C@@H]2O[C@@H](C)[C@](O)(C=O)[C@H]2O[C@@H]2O[C@@H](CO)[C@H](O)[C@@H](O)[C@@H]2NC)[C@@H](N/C(N)=N\[H])[C@@H]1O` [streptomycin] here?
The value was “resistant”.

What about the “susceptibility of strain 63169 to drug” value [2] of the same molecule?
The value was “sensitive”.

What about the “susceptibility of strain 57778 to drug” value [6] of the same molecule?
The value was “resistant”.

And the “susceptibility of drug-sensitive laboratory strain to drug” value [7]?
The value was “sensitive”.

Which “time course of Cl- secretory response (Isc)” value (normal airway epithelium; comparison agonist) does the source give for `Nc1ncnc2c1ncn2[C@@H]1O[C@H](COP(=O)(O)OP(=O)(O)OP(=O)(O)O)[C@@H](O)[C@H]1O` [ATP, reference compound] here?
Its value is “rapid onset of action and a rapid return to the baseline current”.

With `CO[C@H]1/C=C/O[C@@]2(C)Oc3c(C)c(O)c4c(O)c(c(/C=N/N5CCN(C)CC5)c(O)c4c3C2=O)NC(=O)/C(C)=C\C=C\[C@H](C)[C@H](O)[C@@H](C)[C@@H](O)[C@@H](C)[C@H](OC(C)=O)[C@@H]1C` [rifampin] as the molecule, how does the “susceptibility of strain 65021 to drug” value [1] read?
Its value is “resistant”.

And the “susceptibility of strain 63169 to drug” value [2]?
The value was “resistant”.

And the “susceptibility of strain 57778 to drug” value [6]?
The value was “resistant”.

And the “susceptibility of drug-sensitive laboratory strain to drug” value [7]?
The value was “sensitive”.

For `N=C(N)NC(=O)c1nc(Cl)c(N)nc1N` [amiloride], which “increase in airway fluid after amiloride treatment” value [8] is on record?
The value was about 50%.
